Test [1] has as its system HCT116. The experiment in a line: efficacy (maximum % inhibition of viability vs DMSO); higher = more cytotoxic. The note with it: 72 h. A digest of the protocol: (§1)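 HCT116 cells were seeded at 250 per well in 1536-well plates with 5 h allowed for attachment. CellTiter-Glo luminescence was normalized against vehicle (0%) and positive control (-100%) before pattern correction. The IC50 and maximal efficacy figures derive from four-parameter Hill fits.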

In test [2] the test system is HCT116. The settings on record: 72 h. A digest of the protocol:
as §1

Molecules are shown by their SMILES. Structures can show the parent of a compound that is named as a salt. Bounds are passed on as bounds.

Take `CCCCN(CCCC)CCC(O)c1cc2c(Cl)cc(Cl)cc2c2cc(C(F)(F)F)ccc12` (centres undefined) [Halofantrine]: the efficacy came out at 66.9% with HCT116 [1] (ICRF193 0 nM) and 87.4% in the test with HCT116 [1] (ICRF193 200 nM). Moreover, the figures for the IC50 cell viability in the test with HCT116 [2] (ICRF193 0 nM) and in the test with HCT116 [2] (ICRF193 200 nM) were 23.1 µM and 20.6 µM, respectively.
On to `Clc1cc(Cl)c(OCC#CI)cc1Cl` [Haloprogin], for which the figures for the efficacy in the test with HCT116 [1] (ICRF193 0 nM) and with HCT116 [1] (ICRF193 200 nM) were 89.7% and 93.8%, respectively. In addition, the results for the IC50 cell viability with HCT116 [2] (ICRF193 0 nM) and in the test with HCT116 [2] (ICRF193 200 nM) were 25.9 µM and 20.6 µM, respectively.
For `Oc1c(Cl)cc(Cl)c(Cl)c1Cc1c(O)c(Cl)cc(Cl)c1Cl` [Hexachlorophene], in that order: 82.5%, 45.6%, 2.59 µM and 6.51 µM.
In the case of `CCCCCCCCCCCCCCCC[N+](C)(C)C` [Hexadecyltrimethylammonium bromide], the efficacy is 103% in the test with HCT116 [1] (ICRF193 0 nM) and 91.6% with HCT116 [1] (ICRF193 200 nM). Besides, the IC50 cell viability in the test with HCT116 [2] (ICRF193 0 nM) worked out at 5.8 µM; in the test with HCT116 [2] (ICRF193 200 nM), 7.3 µM.
On the same counts, the results for `CC[C@H](c1ccc(O)cc1)[C@@H](CC)c1ccc(O)cc1` [Hexestrol] are 69.4%, 64.6%, 16.4 µM and 20.6 µM.
Take `CN1CCCN(C(c2ccccc2)c2ccc(Cl)cc2)CC1` (centres undefined) [Homochlorcyclizine]: the efficacy in the test with HCT116 [1] (ICRF193 0 nM) stood at 71.7%; in the test on HCT116 [1] (ICRF193 200 nM) it was 84.3%. For the same molecule, the IC50 cell viability with HCT116 [2] (ICRF193 0 nM) turned out to be 20.6 µM; with HCT116 [2] (ICRF193 200 nM), 29.1 µM.
Take `CCCCCC(=O)O[C@]1(C(C)=O)CC[C@H]2[C@@H]3CCC4=CC(=O)CC[C@]4(C)[C@H]3CC[C@@]21C` [Hydroxyprogesterone caproate]: the efficacy with HCT116 [1] (ICRF193 200 nM) was 56.4%. Moreover, the IC50 cell viability with HCT116 [2] (ICRF193 0 nM) is greater than 45.8 µM; in the test on HCT116 [2] (ICRF193 200 nM) it was 16.4 µM.
With `CC1(C)C(/C=C/C=C/C=C/C=C2\N(CCCCS(=O)(=O)O)c3ccc4ccccc4c3C2(C)C)=[N+](CCCCS(=O)(=O)[O-])c2ccc3ccccc3c21` [INDOCYANINE GREEN], the efficacy in the test with HCT116 [1] (ICRF193 0 nM) turned out to be 43.6%. Moreover, the IC50 cell viability in the test with HCT116 [2] (ICRF193 0 nM) was 29.1 µM; in the test on HCT116 [2] (ICRF193 200 nM), greater than 45.8 µM.
For the molecule `CC(=O)[C@]1(O)Cc2c(O)c3c(c(O)c2[C@@H](O[C@H]2C[C@H](N)[C@H](O)[C@H](C)O2)C1)C(=O)c1ccccc1C3=O` [Idarubicin hydrochloride], the efficacy was determined as 80.9% in the test with HCT116 [1] (ICRF193 0 nM) and 78.8% in the test on HCT116 [1] (ICRF193 200 nM). The IC50 cell viability is 1.64 µM in the test on HCT116 [2] (ICRF193 0 nM) and 0.58 µM in the test on HCT116 [2] (ICRF193 200 nM).
In the case of `COC1=C(OC)C(=O)C(CCCCCCCCCCO)=C(C)C1=O` [Idebenone], the efficacy in the test on HCT116 [1] (ICRF193 0 nM) was found to be 49.5%; in the test with HCT116 [1] (ICRF193 200 nM), 56.6%. Besides, the IC50 cell viability with HCT116 [2] (ICRF193 0 nM) and with HCT116 [2] (ICRF193 200 nM) was 20.6 µM throughout.
Consider `CC[C@H](Nc1ncnc2[nH]cnc12)c1nc2cccc(F)c2c(=O)n1-c1ccccc1` [Idelalisib], for which, in the test with HCT116 [1] (ICRF193 200 nM), the efficacy turned out to be 42.6%. Moreover, the IC50 cell viability is greater than 45.8 µM with HCT116 [2] (ICRF193 0 nM) and 29.1 µM with HCT116 [2] (ICRF193 200 nM).
As to `COc1cc(C(C)=O)ccc1OCCCN1CCC(c2noc3cc(F)ccc23)CC1` [Iloperidone], the efficacy with HCT116 [1] (ICRF193 200 nM) amounted to 49.6%. The IC50 cell viability in the test with HCT116 [2] (ICRF193 0 nM) is greater than 45.8 µM; in the test on HCT116 [2] (ICRF193 200 nM) it was 23.1 µM.
The molecule `C=CCOC(Cn1ccnc1)c1ccc(Cl)cc1Cl` (centres undefined) [Imazalil sulfate] showed an efficacy with HCT116 [1] (ICRF193 200 nM) of 44.8%. In addition, the IC50 cell viability in the test with HCT116 [2] (ICRF193 0 nM) is greater than 45.8 µM; with HCT116 [2] (ICRF193 200 nM) it was 29.1 µM.
`CN(C)CCCN1c2ccccc2CCc2ccccc21` [Imipramine] gave an efficacy in the test on HCT116 [1] (ICRF193 200 nM) of 40.6%. The IC50 cell viability in the test with HCT116 [2] (ICRF193 0 nM) is greater than 45.8 µM; with HCT116 [2] (ICRF193 200 nM), 13 µM.
With `CCc1cc2c(cc1CC)CC(NC[C@H](O)c1ccc(O)c3[nH]c(=O)ccc13)C2` [Indacaterol (maleate)], the efficacy in the test with HCT116 [1] (ICRF193 0 nM) worked out at 82.9%; in the test on HCT116 [1] (ICRF193 200 nM), 91.6%. Besides, the IC50 cell viability in the test on HCT116 [2] (ICRF193 0 nM) is 18.3 µM; with HCT116 [2] (ICRF193 200 nM) it was 20.6 µM.
With `C/C=C(/C)C(=O)O[C@H]1C(C)=C[C@]23C(=O)[C@@H](C=C(CO)[C@@H](O)[C@]12O)[C@H]1[C@@H](C[C@H]3C)C1(C)C` [Ingenol mebutate], in the test on HCT116 [1] (ICRF193 200 nM), the efficacy came to 60.3%. For the same molecule, the IC50 cell viability in the test with HCT116 [2] (ICRF193 0 nM) was greater than 45.8 µM; with HCT116 [2] (ICRF193 200 nM) it was 23.1 µM.
As for `Oc1c(I)cc(I)c2cccnc12` [Iodoquinol], the values for the efficacy in the test on HCT116 [1] (ICRF193 0 nM) and in the test with HCT116 [1] (ICRF193 200 nM) were 84.8% and 91.7%, respectively. Further, the IC50 cell viability in the test on HCT116 [2] (ICRF193 0 nM) was 13 µM; in the test with HCT116 [2] (ICRF193 200 nM) it was 10.3 µM.
For `CCc1c2c(nc3ccc(OC(=O)N4CCC(N5CCCCC5)CC4)cc13)-c1cc3c(c(=O)n1C2)COC(=O)[C@]3(O)CC` [Irinotecan], in that order: 79.8%, 102%, 13 µM and 23.1 µM.
With `C[C@@H](c1nc(-c2ccc(C#N)cc2)cs1)[C@](O)(Cn1cncn1)c1cc(F)ccc1F` [Isavuconazole], the efficacy in the test on HCT116 [1] (ICRF193 200 nM) was found to be 45.8%. The results for the IC50 cell viability in the test with HCT116 [2] (ICRF193 0 nM) and in the test on HCT116 [2] (ICRF193 200 nM) were greater than 45.8 µM and 8.2 µM, respectively.
Consider `Clc1ccc(C(Cn2ccnc2)OCc2c(Cl)cccc2Cl)c(Cl)c1` (centres undefined) [Isoconazole nitrate], for which the efficacy in the test on HCT116 [1] (ICRF193 0 nM) was found to be 87.5%; in the test with HCT116 [1] (ICRF193 200 nM), 82.6%. In addition, the IC50 cell viability with HCT116 [2] (ICRF193 0 nM) amounted to 25.9 µM; in the test with HCT116 [2] (ICRF193 200 nM) it was 18.3 µM.
On the same counts, the results for `CCN(CC)c1ccc(C(=C2C=CC(=[N+](CC)CC)C=C2)c2cc(S(=O)(=O)O)ccc2S(=O)(=O)[O-])cc1` [Isosulfan blue] are 76.5%, 78.9%, 29.1 µM and 18.3 µM.
On the same counts, the results for `Cc1nnc2n1-c1sc(CCc3ccc(CC(C)C)cc3)cc1C(c1ccccc1Cl)=NC2C` (centres undefined) [Israpafant] are 98.7%, 114%, 16.4 µM and 23.1 µM.
For `CC(C)(C)c1cc(C(C)(C)C)c(NC(=O)c2c[nH]c3ccccc3c2=O)cc1O` [Ivacaftor], in that order: 96.4%, 98.6%, 18.3 µM and 18.3 µM.
For the molecule `C/C(=C\c1csc(C)n1)[C@@H]1C[C@@H]2O[C@]2(C)CCC[C@H](C)[C@H](O)[C@@H](C)C(=O)C(C)(C)[C@@H](O)CC(=O)N1` [Ixabepilone], in the test on HCT116 [1] (ICRF193 0 nM), the efficacy was found to be 72.5%. Moreover, the values for the IC50 cell viability in the test on HCT116 [2] (ICRF193 0 nM) and in the test on HCT116 [2] (ICRF193 200 nM) were 0.92 µM and greater than 45.8 µM, respectively.
`CC(C)C[C@H](NC(=O)CNC(=O)c1cc(Cl)ccc1Cl)B(O)O` [Ixazomib]: the efficacy in the test on HCT116 [1] (ICRF193 0 nM) amounted to 92.8%; with HCT116 [1] (ICRF193 200 nM) it was 92.6%. Besides, the IC50 cell viability in the test with HCT116 [2] (ICRF193 0 nM) was 0.0651 µM; in the test on HCT116 [2] (ICRF193 200 nM), 0.058 µM.
Take `CC(=O)N1CCN(c2ccc(OCC3COC(Cn4ccnc4)(c4ccc(Cl)cc4Cl)O3)cc2)CC1` (centres undefined) [Ketoconazole]: in the test on HCT116 [1] (ICRF193 200 nM), the efficacy stood at 55.8%. Further, the values for the IC50 cell viability in the test on HCT116 [2] (ICRF193 0 nM) and in the test with HCT116 [2] (ICRF193 200 nM) were greater than 45.8 µM and 13 µM, respectively.

Values taken from the supplement of paper PMC12137928.
